Assays:
[1] = tested on: hangover; test: clinical self-experiment on hangover symptoms after alcohol consumption; type: in vivo, human; conditions: one inventor on themself; 50 mg orally (capsule) just prior to drinking, 50 mg during, 50 mg next morning; total 150 mg in fourteen hours
Text: The invention is based, in part, on a clinical experiment that an inventor of the invention described herein conducted on themself using SELBEX® (geranylgeranylacetone). On one occasion in the evening, they consumed an excessive amount of alcoholic beverages and awoke the following morning experiencing abdominal discomfort, nausea, fatigue, and headache. The normal measures that they had taken in the past to ameliorate hangover provided little relief. They decided that on the next occasion on which they would be drinking alcoholic beverages, they would ingest SELBEX® (geranylgeranylacetone) to determine whether it provided relief. Thus, on a subsequent evening, just prior to the drinking of alcoholic beverages, they ingested 50 mg of SELBEX® (geranylgeranylacetone) orally, in the form of a capsule marketed commercially by Eisai Co., Ltd. During the course of the evening, as they continued drinking alcoholic beverages, they ingested an additional 50 mg of SELBEX® (geranylgeranylacetone) orally. The next morning when they awoke, they ingested an additional 50 mg of SELBEX® (geranylgeranylacetone), bringing the total ingested during a fourteen hour period to 150 mg.

[2] = cited from earlier work
[3] = cited from earlier work; remark: listed apart in the source

SMILES: CC(=O)CC/C=C(\C)CC/C=C(\C)CC/C=C(\C)CCC=C(C)C [SELBEX® (geranylgeranylacetone), 3:2 (5E:5Z) geometrical mixture of (9E,13E)-6,10,14,18-tetramethyl-5,9,13,17-nonadecatetraen-2-one]
- symptoms of hangover (abdominal discomfort, nausea, fatigue, and headache) [1]: either abolished or markedly alleviated
- miscibility with organic solvents ([2]; methanol, ethanol, acetone, chloroform, and hexane): miscible
- solubility in water ([2]; water): practically insoluble
- stability to air [3]: affected by air

Reference: patent US7087649B2, “Methods for preventing and treating diseases and conditions associated with cellular stress” (Eisai Co., Ltd., priority 2001, dated 2006)
